# According to patent publication US20180160679A1, “PROCESS FOR TREATING PERENNIAL PLANT WOOD DISEASES” (priority 2015, published 2018):
# Key:
# [1] = tested on: Phaemoniella chlamydospora (81pep); assay: Germination of the spores on malt-agar medium with fungicide; assay type: cell-based; settings: at 0.05 mg/1
# Method: (§1) Formulation 3 was used in this experiment and was compared with two formulations 5 and 6, devoid of one of the two active ingredients but of identical composition (the quantity of active ingredient omitted is replaced with water).
# (§2) The fungi on which formulations 3, 5 and 6 were tested are Phaemoniella chlamydospora (81pep), Phaeoacremonium aleophilum (LR 23), Diplodia seriata (F98-01), Neofusicoccum parvum (NpSV) and Eutypa lata.
# (§3) The fungi are transferred to a malt-agar medium (15 g of malt and 20 g of agar per litre of deionized water, sterilized at 120° C. for 20 minutes) in a Petri dish for multiplication.
# (§4) The conidia of Phaemoniella chlamydospora and Phaeoacremonium aleophilum are obtained from cultures of these fungi. The conidia are obtained by rinsing the colony of fungi with a few millilitres of sterile deionized water.
# (§5) The suspension of conidia in deionized water is then adjusted to 100-200 conidia per μl.
# (§6) The culture medium is a malt-agar medium (15 g of malt and 20 g of agar per litre of deionized water, sterilized at 120° C. for 20 minutes).
# (§7) The medium containing the fungicides is prepared by diluting the formulation under investigation in deionized water, which is added to the culture medium. The mixture is then homogenized and distributed in Petri dishes with a diameter of 90 mm.
# (§8) The final concentrations of each active ingredient in the medium are as follows: 0.0005, 0.005, 0.05, 0.5, 5, 50 and 500 mg/L.
# (§9) 100 μl of a previously homogenized suspension of spores is deposited and spread over the surface of the culture medium.
# (§10) Two repetitions are carried out for each test.
# (§11) The percentage germination of the spores is evaluated relative to a control placed under the same conditions.
# (§12) Two Petri dishes are incubated at 25° C. for a time required for the spores of the control dish to have germinated between 90 and 100%.
# (§13) For each Petri dish, 200 spores are counted and the percentage of spores germinated is calculated.
# (§14) For each concentration of fungicide, the percentage efficacy of the active ingredient is determined by the following equation: […]
# [2] = tested on: Phaeoacremonium aleophilum (LR 23); assay: as above; assay type: cell-based; settings: for inhibition of germination of the spores: at the concentrations tested (0.0005 to 500 mg/L)
# Method: as §1, §2, §3, §4, §5, §6, §7, §8, §9, §10, §11, §12, §13, §14
# [3] = tested on: Diplodia seriata (F98-01); assay: as above; assay type: cell-based; settings: at the concentrations tested (0.0005 to 500 mg/L)
# Method: as §1, §2, §3
# The conidia of Diplodia seriata are obtained from pycnidia that have developed in less than three weeks of culture on the malt-agar medium. The pycnidia are taken from and cultured in sterile water in such a way that they release the conidia.
# (§15) The culture medium is a malt-agar medium (15 g of malt and 20 g of agar per litre of deionized water, sterilized at 120° C. for 20 minutes). […]
# (§16) The percentage germination of the spores is evaluated relative to a control placed under the same conditions. […]
# as §13, §14
# [4] = tested on: Neofusicoccum parvum (NpSV); assay: as above; assay type: cell-based
# Method: as §1, §2, §3
# The conidia of Neofusicoccum parvum are obtained from pycnidia that have developed on fragments of grapevines shoots.
# as §6
# The medium containing the fungicides is prepared by diluting the formulation under investigation in deionized water, which is added to the culture medium. […]
# as §16, §13, §14
# Eutypa lata = assay: as above; assay type: cell-based
# Method: as §1, §2, §3
# The ascospores of Eutypa lata are obtained from perithecia situated on vine plants that have died from Eutypiosis. The perithecia are decapitated superficially, isolated one by one and soaked in sterile water for approximately 2 hours. The concentration of ascospores is then adjusted to 100-200 conidia per μl.
# as §15, §16, §13, §14
# [5] = tested on: Diplodia seriata (F98-01); assay: Mycelial growth on malt-agar medium with fungicide; assay type: cell-based; settings: for activity on mycelial growth / concentration at which mycelial growth is inhibited completely: Example 6
# Method: (§17) Formulation 3 was used in this experiment and was compared with two formulations 5 and 6, is devoid of one of the two active ingredients but of identical composition (the quantity of active ingredient omitted is replaced with water).
# (§18) The fungi on which formulations 3, 5 and 6 were tested are Diplodia seriata (F98-01), Neofusicoccum parvum (NpSV), Eutypa lata (St309) and Formitiporia mediterranea (F2010-1).
# as §6, §7, §8
# (§19) Discs with a diameter of 6 mm, cut out with a punch, are placed in each dish in sterile conditions. Three repetitions are carried out for each test. The Petri dishes are incubated at 25° C. for a time necessary for the fungus to develop as far as 1 or 2 cm from the edges of a Petri dish.
# (§20) The percentage mycelial growth is evaluated relative to a control placed under the same conditions for each concentration of fungicide, by the following equation: […]
# (§21) The value of the concentration of the active ingredients required for inhibiting mycelial growth at 50% (IC50) or at 90% (IC90) is calculated from the regression straight line of the percentage efficacy as a function of the logarithm of the concentration of the fungicide.
# (§22) The value of the concentration of the fungicide that is lethal for the fungus is obtained according to the following methodology; the mycelial implants that have not developed on the culture medium with fungicide are transferred to a malt-agar culture medium, without fungicide. The Petri dishes are then incubated at ambient temperature. Failure of the mycelial implant to take is noted.
# (§23) The interactions between the fungicides in composition 3 are investigated by Wadley's method. IC50 and IC90 can be determined for each fungicide and for the fungicide combination from the curves plotted for each active ingredient used alone or for the combination.
# (§24) IC90 and the theoretical IC90 for the combination is then calculated using the following equation:
# (§25) The type and the level of the interaction F are then calculated by dividing the theoretical IC value by the experimental IC observed for the combination of fungicides (F=theoretical IC/experimental IC).
# (§26) The interactions are defined thus: • Additivity: F=1, • Synergy: F>1, • Antagonism: F<1.
# (§27) The efficacy of tetraconazole, cyproconazole alone or in combination with chlorothalonil or metiram zinc on mycelial growth was evaluated under the same conditions as in Example 4.
# (§28) The efficacy of tebuconazole in combination with another […] antifungal, metiram zinc, was also evaluated.
# Eutypa lata (St309) = assay: Mycelial growth on malt-agar medium with fungicide; assay type: cell-based
# Method: as §17, §18, §6, §7, §8, §19, §20, §21, §22, §23, §24, §25, §26, §27, §28
# [6] = tested on: Neofusicoccum parvum (NpSV); assay: Mycelial growth on malt-agar medium with fungicide; assay type: cell-based; settings: for activity on mycelial growth / concentration at which mycelial growth is inhibited completely: Example 6
# Method: as §17, §18, §6, §7, §8, §19, §20, §21, §22, §23, §24, §25, §26, §27, §28
# [7] = tested on: Formitiporia mediterranea (F2010-1); assay: Mycelial growth on malt-agar medium with fungicide; assay type: cell-based, Fomitoporia mediterranea; settings: for fungicide (lethal) activity: at the concentrations tested; for concentration at which mycelial growth is inhibited completely: Example 6
# Method: as §17, §18, §6, §7, §8, §19, §20, §21, §22, §23, §24, §25, §26, §27, §28
# [8] = tested on: Phaeocremonium aleophilum; assay: Mycelial growth on malt-agar medium with fungicide (Example 6); assay type: cell-based
# Method: as §6, §7, §19, §20, §21
# as §22, with “noted. […]” for “noted.”
# as §27, §28
# [9] = tested on: Phaeomoniella chlamydospora; assay: as above; assay type: cell-based
# Method: as §6, §7, §19, §20, §21
# as §22, with “noted. […]” for “noted.”
# as §27, §28
# [10] = tested on: Neonectria galligena (Cylindrocarpon heteronema); assay: Growth inhibition by laser nephelometry in 96-well microplates; assay type: cell-based; settings: for IC50 / IC90: growth, nephelometry for 60 h
# Method: (§29) For multicellular organisms such as fungi, the nephelometry method is used on sporulating strains (Joubert et al., Laser nephelometry applied in an automated microplate system to study filamentous fungus growth, Biotechniques 48: 399-404, 2010).
# (§30) The strains are multiplied on suitable agar media in an oven at 20° C., for 8 days before their use, so as to be in their exponential growth phase. The fungal suspension is prepared extemporaneously at a concentration of […] for Pc and […] for Ch.
# (§31) 100 μl of the suspension is used for the tests.
# (§32) The tests are carried out in 96-well microplates. Doses of 0 ppm, 0.1 ppm, 0.3 ppm, 1 ppm, 3 ppm, 10 ppm, 30 ppm, 100 ppm, 300 ppm, 1000 ppm and 3000 ppm (final concentration of the substance) will be tested per product.
# (§33) Three technical repetitions are carried out per modality (target species/formulation).
# (§34) Controls are added per target pathogenic agent: one positive growth control and the products alone at the highest doses.
# (§35) Nephelometry measurements (RNU) are carried out for 60 h, every 30 minutes and the growth values are measured to study the growth inhibition effect relative to the fungal controls.
# Phytophthora cactorum = assay: as above; assay type: cell-based; settings: nephelometry for 60 h
# Method: as §29, §30, §31, §32, §33, §34, §35
# [11] = Example 5, at the concentrations tested
Compound,inhibition of germination of the spores [1],inhibition of germination of the spores [2],concentration that inhibits germination of the spores (Eutypa lata),activity on mycelial growth [5],activity on mycelial growth (Eutypa lata (St309); Example 6),activity on mycelial growth [6],fungicide (lethal) activity [7],concentration at which mycelial growth is inhibited completely [8],concentration at which mycelial growth is inhibited completely [9],lethal dose [10],IC50 [10],IC90 [10],50% inhibitory concentration (IC50) (Phytophthora cactorum),90% inhibitory concentration (IC90) (Phytophthora cactorum),concentration from which mycelial growth is inhibited completely (Eutypa lata (St309); Example 6),lethal dose (Eutypa lata (St309); Example 6),concentration at which mycelial growth is inhibited completely [6],concentration at which mycelial growth is inhibited completely [7],concentration at which the substance is fungicidal (lethal dose) [8],concentration at which the substance is fungicidal [9],further results
N#Cc1c(Cl)c(Cl)c(Cl)c(C#N)c1Cl [chlorothalonil],does not inhibit germination of the spores,does not inhibit germination of the spores,5 mg/1,low activity,do not inhibit the mycelial growth of Eutypa lata completely,moderate activity,does not display fungicide activity,500 mg/L,500 mg/L,≥ 300 ppm,approximately 100 ppm,around 250 ppm,below 10 ppm,1000 ppm,,,,,,,"inhibition of germination of the spores [3]: does not inhibit germination of the spores; concentration from which germination of the spores is inhibited [4]: ≥ 5 mg/L; concentration from which mycelial development is strongly inhibited ([5]; Example 5): ≥ 500 mg/L; fungicide (lethal) activity [5, 11]: does not display fungicide activity; concentration from which mycelial development is strongly inhibited (Eutypa lata (St309); Example 5): ≥ 50 mg/L; fungicide (lethal) activity (Eutypa lata (St309); Example 5, at the concentrations tested (0.0005 to 500 mg/L)): does not display fungicide activity; activity on mycelial growth (Eutypa lata (St309); Example 6, listed as Chlorothalonil): low activity; concentration at which mycelial development is strongly inhibited ([6]; Example 5): 500 mg/L; fungicide (lethal) activity [6, 11]: does not display fungicide activity; concentration from which mycelial development is strongly inhibited ([7]; Example 5): ≥ 5 mg/L"
CC(C1CC1)C(O)(Cn1cncn1)c1ccc(Cl)cc1 (centres unmarked) [cyproconazole],,,,low activity,,,fungicidal,50 mg/L,50 mg/L,,,,,,≥ 1 mg/L,10 mg/L,500 mg/L,500 mg/L,100 mg/L,100 mg/L,
CC(C)(C)C(O)(CCc1ccc(Cl)cc1)Cn1cncn1 (centres unmarked) [tebuconazole],inhibit germination of the spores completely,does not prevent germination of the spores,50 mg/1,,,,None of the concentrations tested is lethal,50 mg/L,50 mg/L,1000 ppm,around 230 ppm,around 800 ppm,around 200 ppm,< 1000 ppm,,,,,100 mg/L,100 mg/L,"concentration from which elongation of the spores is inhibited [2]: ≥ 5 mg/L; inhibition of germination of the spores ([4]; at the concentration tested): does not inhibit germination of the spores; IC50 ([5]; Diplodia seriata, Example 5, mycelial growth, unit not given (concentrations tested in mg/L)): 6 ng/mL; concentration from which mycelial growth is inhibited completely ([5]; Example 5): ≥ 50 mg/L; lethal concentration ([5]; Example 5): 500 mg/L; concentration from which mycelial growth is inhibited completely (Eutypa lata (St309); Example 5): ≥ 0.5 mg/L; lethal concentration (Eutypa lata (St309); Example 5, implants transferred to medium without fungicide): 500 mg/L; concentration from which mycelial growth is inhibited completely ([6]; Example 5): ≥ 0.5 mg/L; lethal concentration ([6]; Example 5): 500 mg/L; IC50 ([6]; Neofusicoccum parvum, Example 5, mycelial growth, unit not given (concentrations tested in mg/L)): 13 ng/mL; concentration from which mycelial growth is inhibited completely ([7]; Example 5): ≥ 0.5 mg/L; IC50 ([7]; Example 5, mycelial growth, unit not given (concentrations tested in mg/L)): 3 ng/mL"
FC(F)C(F)(F)OCC(Cn1cncn1)c1ccc(Cl)cc1Cl (centres unmarked) [tetraconazole],,,,,,,fungicidal,50 mg/L,50 mg/L,,,,,,≥ 5 mg/L,50 mg/L,500 mg/L,10 mg/L,100 mg/L,100 mg/L,concentration at which mycelial growth is inhibited completely [5]: 500 mg/L
metiram zinc,,,,,low activity,moderate activity,fungicidal,100 mg/L,100 mg/L,,,,,,,,,500 mg/L,,,"concentration at which mycelial growth is inhibited completely [5]: 500 mg/L; activity on mycelial growth (Eutypa lata (St309); Example 6, listed as Metiram zinc): do not inhibit the mycelial growth of Eutypa lata completely"
